In doi:10.1101/2021.08.31.458471v1 (biorxiv, 2021):

Legend:
[1] = biological target: McpA signaling domain (McpAc) (Bacillus subtilis, UniProt P39214); assay: biochemical
McpB signaling domain = McpB signaling domain (Bacillus subtilis, UniProt P39215); conditions: 20 µM protein, 2 mM benzene, PBS in D2O pH 7.4, 298 K
McpB signaling domain, sequence (P39215 359-662): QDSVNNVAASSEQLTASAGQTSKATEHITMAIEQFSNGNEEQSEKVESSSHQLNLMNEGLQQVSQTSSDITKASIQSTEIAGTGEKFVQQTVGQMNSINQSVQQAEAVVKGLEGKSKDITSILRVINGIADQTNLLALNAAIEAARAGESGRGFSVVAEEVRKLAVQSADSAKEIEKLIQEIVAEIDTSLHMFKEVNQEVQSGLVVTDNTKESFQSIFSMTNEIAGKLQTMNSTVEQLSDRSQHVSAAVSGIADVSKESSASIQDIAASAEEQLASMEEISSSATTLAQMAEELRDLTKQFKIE

McpA signaling domain (McpAc), sequence (P39214 359-661): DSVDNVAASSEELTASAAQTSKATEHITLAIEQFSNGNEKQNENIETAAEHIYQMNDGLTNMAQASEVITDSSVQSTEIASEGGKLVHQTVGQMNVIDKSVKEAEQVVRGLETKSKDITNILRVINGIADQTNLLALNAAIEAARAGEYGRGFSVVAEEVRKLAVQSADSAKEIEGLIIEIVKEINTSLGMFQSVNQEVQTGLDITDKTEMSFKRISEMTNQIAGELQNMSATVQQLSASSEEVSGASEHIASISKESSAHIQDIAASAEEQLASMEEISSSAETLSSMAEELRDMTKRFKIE

Row | STD-AF (McpB signaling domain) | SMILES | Kd [1]
1 | – | Oc1ccccc1 [phenol] | 4.8 mM
2 | 16.4% | c1ccccc1 [benzene] | –
